Test results taken from patent publication US20240294522A1 (Lead Discovery Center GmbH, priority 2021, published 2024).

Key:
[1] = molecular target: T1, GRK2 (Homo sapiens, UniProt P25098); experiment: Lance Kinase Activity Assay, GRK2; conditions: biochemical Lance kinase activity assay; class symbols A-F; read-out: GRK2 LANCE Assay (IC-50)
T1 construct: purchased Thermo Scientific
T1 sequence (P25098 1-689): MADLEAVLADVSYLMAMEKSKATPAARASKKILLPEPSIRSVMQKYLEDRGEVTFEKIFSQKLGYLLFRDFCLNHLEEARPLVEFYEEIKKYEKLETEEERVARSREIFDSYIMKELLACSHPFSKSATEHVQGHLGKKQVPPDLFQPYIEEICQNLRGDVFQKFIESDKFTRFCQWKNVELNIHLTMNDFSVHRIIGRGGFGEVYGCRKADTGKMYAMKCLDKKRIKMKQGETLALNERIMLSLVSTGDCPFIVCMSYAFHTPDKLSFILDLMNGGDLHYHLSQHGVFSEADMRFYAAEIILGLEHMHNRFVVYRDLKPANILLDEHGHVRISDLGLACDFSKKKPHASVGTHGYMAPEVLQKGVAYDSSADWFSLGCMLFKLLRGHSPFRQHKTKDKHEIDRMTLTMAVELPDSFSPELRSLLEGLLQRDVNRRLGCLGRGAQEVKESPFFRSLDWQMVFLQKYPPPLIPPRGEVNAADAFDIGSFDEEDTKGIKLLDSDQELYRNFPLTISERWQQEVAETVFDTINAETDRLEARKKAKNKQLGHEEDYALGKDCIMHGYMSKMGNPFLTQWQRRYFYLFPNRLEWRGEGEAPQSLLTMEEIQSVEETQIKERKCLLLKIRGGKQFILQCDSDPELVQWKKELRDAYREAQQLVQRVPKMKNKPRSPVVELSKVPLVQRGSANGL
Method in brief: (§1)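 IC50s from sigmoidal dose-response over 0.0025-10 μM compound, with phosphorylated ULight substrate detected by Eu anti-phospho antibody FRET after EDTA quench.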

[2] = molecular target: T2, GRK5 (Homo sapiens, UniProt P34947); experiment: Lance Kinase Activity Assay, GRK5; conditions: biochemical Lance kinase activity assay; class symbols A-F; read-out: GRK5 LANCE Assay (IC-50)
T2 construct: purchased Thermo Scientific
T2 sequence (P34947 whole entry): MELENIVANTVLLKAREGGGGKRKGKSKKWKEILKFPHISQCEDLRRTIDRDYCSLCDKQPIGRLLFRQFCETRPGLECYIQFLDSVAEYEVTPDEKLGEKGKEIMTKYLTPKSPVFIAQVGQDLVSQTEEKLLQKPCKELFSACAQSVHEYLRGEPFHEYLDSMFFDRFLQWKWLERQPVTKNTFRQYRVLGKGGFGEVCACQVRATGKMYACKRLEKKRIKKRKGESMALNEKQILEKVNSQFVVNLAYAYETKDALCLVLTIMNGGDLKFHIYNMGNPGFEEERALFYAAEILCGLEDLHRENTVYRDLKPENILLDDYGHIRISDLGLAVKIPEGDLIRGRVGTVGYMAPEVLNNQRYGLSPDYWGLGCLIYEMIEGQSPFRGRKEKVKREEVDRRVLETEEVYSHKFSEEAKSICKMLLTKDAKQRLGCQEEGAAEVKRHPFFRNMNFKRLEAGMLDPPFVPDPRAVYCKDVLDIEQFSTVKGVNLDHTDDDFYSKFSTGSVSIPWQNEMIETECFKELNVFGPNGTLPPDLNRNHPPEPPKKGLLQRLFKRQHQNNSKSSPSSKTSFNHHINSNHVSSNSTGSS
Method in brief: as §1

| Compound | IC50 [1] [nM] | IC50 [2] [nM] |
| --- | --- | --- |
| CNS(=O)(=O)c1ccccc1CNC(=O)/C(C#N)=C/c1c[nH]c2ncccc12 [Example 43, (E)-2-cyano-N-(2-(N-methylsulfamoyl)benzyl)-3-(1H-pyrrolo[2,3-b]pyridin-3-yl)acrylamide] | 1000 to 10000 | 100 to 500 |
| COc1ccc([C@@H](C)NC(=O)/C(C#N)=C/c2c[nH]c3ncc(C#N)cc23)cc1OC [Example 86, (R,E)-2-cyano-3-(5-cyano-1H-pyrrolo[2,3-b]pyridin-3-yl)-N-(1-(3,4-dimethoxyphenyl)ethyl)acrylamide] | > 10000 | 100 to 500 |
| N#C/C(=C\c1c[nH]c2ncccc12)C(=O)NC(c1cccc(Br)c1)C(F)(F)F (stereo not drawn) [Example 47, (E)-N-(1-(3-bromophenyl)-2,2,2-trifluoroethyl)-2-cyano-3-(1H-pyrrolo[2,3-b]pyridin-3-yl)acrylamide] | > 10000 | 1000 to 10000 |
| N#C/C(=C\c1c[nH]c2ncccc12)C(=O)NCc1ccc(C#N)cc1 [Example 26, (E)-2-cyano-N-(4-cyanobenzyl)-3-(1H-pyrrolo[2,3-b]pyridin-3-yl)acrylamide] | 1000 to 10000 | 1000 to 10000 |
| C[C@@H](NC(=O)/C(C#N)=C/c1c[nH]c2ncccc12)c1ccc(F)cc1 [Example 69, (R,E)-2-cyano-N-(1-(4-fluorophenyl)ethyl)-3-(1H-pyrrolo[2,3-b]pyridin-3-yl)acrylamide] | 50 to 100 | ≤ 50 |
| C[C@@H](NC(=O)/C(C#N)=C/c1c[nH]c2ncc(-c3cnn(C)c3)cc12)c1ccccc1 [Example 91, (R,E)-2-cyano-3-(5-(1-methyl-1H-pyrazol-4-yl)-1H-pyrrolo[2,3-b]pyridin-3-yl)-N-(1-phenylethyl)acrylamide] | 100 to 500 | ≤ 50 |
| N#C/C(=C\c1c[nH]c2ncccc12)C(=O)NCc1cccc(CS(N)(=O)=O)c1 [Example 27, (E)-2-cyano-3-(1H-pyrrolo[2,3-b]pyridin-3-yl)-N-(3-(sulfamoylmethyl)benzyl)-acrylamide] | 1000 to 10000 | 1000 to 10000 |
| CN(C)CC(NC(=O)/C(C#N)=C/c1c[nH]c2ncccc12)c1ccccc1 (stereo not drawn) [Example 50, (E)-2-cyano-N-(2-(dimethylamino)-1-phenylethyl)-3-(1H-pyrrolo[2,3-b]pyridin-3-yl)acrylamide] | 100 to 500 | 100 to 500 |
| CN(C)CCC(NC(=O)/C(C#N)=C/c1c[nH]c2ncccc12)c1ccccc1 (stereo not drawn) [Example 48, (E)-2-cyano-N-(3-(dimethylamino)-1-phenylpropyl)-3-(1H-pyrrolo[2,3-b]pyridin-3-yl)acrylamide] | 50 to 100 | ≤ 50 |
| N#C/C(=C\c1c[nH]c2ncccc12)C(=O)N[C@H](CCO)c1ccccc1 [Example 40, (R,E)-2-cyano-N-(3-hydroxy-1-phenylpropyl)-3-(1H-pyrrolo[2,3-b]pyridin-3-yl)acrylamide] | 100 to 500 | 100 to 500 |
| O=C(/C=C/c1c[nH]c2ncc(Cl)cc12)NCc1ccccc1 [Example 6, (E)-N-benzyl-3-(5-chloro-1H-pyrrolo[2,3-b]pyridin-3-yl)acrylamide] | 1000 to 10000 | 100 to 500 |
| C[C@@H](NC(=O)/C(C#N)=C/c1c[nH]c2ncccc12)c1ccc(Cl)cc1 [Example 70, (R,E)-N-(1-(4-chlorophenyl)ethyl)-2-cyano-3-(1H-pyrrolo[2,3-b]pyridin-3-yl)acrylamide] | 500 to 1000 | 100 to 500 |

Next, values leading:

| IC50 [1] [nM] | IC50 [2] [nM] | Compound |
| --- | --- | --- |
| 1000 to 10000 | ≤ 50 | COc1ccc([C@@H](C)NC(=O)/C(C#N)=C/c2c[nH]c3ncc(O[C@H]4CCOC4)cc23)cc1OC [Example 108, (E)-2-cyano-N-((R)-1-(3,4-dimethoxyphenyl)ethyl)-3-(5-(((S)-tetrahydrofuran-3-yl)oxy)-1H-pyrrolo[2,3-b]pyridin-3-yl)acrylamide] |
| > 10000 | ≤ 50 | Cc1nn(C)c2ccc([C@@H](C)NC(=O)/C(C#N)=C/c3c[nH]c4ncc(-c5cnn(C)c5)cc34)cc12 [Example 262, (R,E)-2-cyano-N-(1-(1,3-dimethyl-1H-indazol-5-yl)ethyl)-3-(5-(1-methyl-1H-pyrazol-4-yl)-1H-pyrrolo[2,3-b]pyridin-3-yl)acrylamide] |
| 1000 to 10000 | ≤ 50 | COc1ccc([C@@H](C)NC(=O)/C=C/c2c[nH]c3ncc(-c4cccc(CN(C)C)c4)cc23)cc1OC [Example 190] |
| 1000 to 10000 | 50 to 100 | COc1ccc([C@@H](C)NC(=O)/C(C#N)=C/c2c[nH]c3ncc(-c4cc(F)cc(F)c4)cc23)cc1OC [Example 131] |
| 1000 to 10000 | 50 to 100 | C[C@@H](NC(=O)/C(C#N)=C/c1c[nH]c2ncc(-c3cnn(C)c3)cc12)c1ccc(Cl)cc1 [Example 95, (R,E)-N-(1-(4-chlorophenyl)ethyl)-2-cyano-3-(5-(1-methyl-1H-pyrazol-4-yl)-1H-pyrrolo[2,3-b]pyridin-3-yl)acrylamide] |
| 1000 to 10000 | 500 to 1000 | COc1ccc([C@@H](C)NC(=O)/C(C#N)=C/c2c[nH]c3ncc(-c4ccc(N5CCN(C)CC5)cc4)c(C)c23)cc1OC [Example 244, (R,E)-2-cyano-N-(1-(3,4-dimethoxyphenyl)ethyl)-3-(4-methyl-5-(4-(4-methylpiperazin-1-yl)phenyl)-1H-pyrrolo[2,3-b]pyridin-3-yl)acrylamide] |
| 100 to 500 | ≤ 50 | C[C@@H](NC(=O)/C(C#N)=C/c1c[nH]c2ncc(-c3cccc(N4CCN(C)CC4)c3)cc12)c1ccc(F)cc1 [Example 181, (R,E)-2-cyano-N-(1-(4-fluorophenyl)ethyl)-3-(5-(3-(4-methylpiperazin-1-yl)phenyl)-1H-pyrrolo[2,3-b]pyridin-3-yl)acrylamide] |
| > 10000 | 100 to 500 | COc1ccc([C@@H](C)NC(=O)/C=C/c2c[nH]c3nccc(-c4ccc(CN(C)C)cc4)c23)cc1OC [Example 223, (R,E)-N-(1-(3,4-dimethoxyphenyl)ethyl)-3-(4-(4-((dimethylamino)methyl)phenyl)-1H-pyrrolo[2,3-b]pyridin-3-yl)acrylamide] |
| > 10000 | 100 to 500 | COc1ccc([C@@H](C)NC(=O)/C=C/c2c[nH]c3nccc(-c4cccc(NS(C)(=O)=O)c4)c23)cc1OC [Example 231, (R,E)-N-(1-(3,4-dimethoxyphenyl)ethyl)-3-(4-(3-(methylsulfonamido)phenyl)-1H-pyrrolo[2,3-b]pyridin-3-yl)acrylamide] |
| 500 to 1000 | ≤ 50 | COc1ccc([C@@H](C)NC(=O)/C(C#N)=C/c2c[nH]c3ncc(-c4ccc(C5CCN(C)CC5)cc4)cc23)cc1OC [Example 132, (R,E)-2-cyano-N-(1-(3,4-dimethoxyphenyl)ethyl)-3-(5-(4-(1-methylpiperidin-4-yl)phenyl)-1H-pyrrolo[2,3-b]pyridin-3-yl)acrylamide] |
| 100 to 500 | ≤ 50 | C[C@@H](NC(=O)/C(C#N)=C/c1c[nH]c2ncc(-c3cnn(C)c3)cc12)c1ccc(F)c(F)c1 [Example 258, (R,E)-2-cyano-N-(1-(3,4-difluorophenyl)ethyl)-3-(5-(1-methyl-1H-pyrazol-4-yl)-1H-pyrrolo[2,3-b]pyridin-3-yl)acrylamide] |
| > 10000 | ≤ 50 | COc1ccc([C@@H](C)NC(=O)/C=C/c2c[nH]c3ncc(-c4cccc(C#N)c4)cc23)cc1OC [Example 221, (R,E)-3-(5-(3-cyanophenyl)-1H-pyrrolo[2,3-b]pyridin-3-yl)-N-(1-(3,4-dimethoxyphenyl)ethyl)acrylamide] |
| 1000 to 10000 | ≤ 50 | COc1ccc([C@@H](C)NC(=O)/C(C#N)=C/c2c[nH]c3ncc(-c4cccc(CN5CCN(C)CC5)c4)cc23)cc1OC [Example 118, (R,E)-2-cyano-N-(1-(3,4-dimethoxyphenyl)ethyl)-3-(5-(3-((4-methylpiperazin-1-yl)methyl)phenyl)-1H-pyrrolo[2,3-b]pyridin-3-yl)acrylamide] |
| 1000 to 10000 | ≤ 50 | COc1ccc([C@@H](C)NC(=O)/C(C#N)=C/c2c[nH]c3ncc(-c4cccc(CN(C)C)c4)cc23)cc1OC [Example 148] |
| 1000 to 10000 | ≤ 50 | COc1ccc([C@@H](C)NC(=O)/C=C/c2c[nH]c3ncc(-c4cccc(NS(C)(=O)=O)c4)cc23)cc1OC [Example 193] |
| 1000 to 10000 | 50 to 100 | COc1ccc([C@@H](C)NC(=O)/C=C/c2c[nH]c3nccc(-c4ccc(CN5CCOCC5)cc4)c23)cc1OC [Example 232, (R,E)-N-(1-(3,4-dimethoxyphenyl)ethyl)-3-(4-(4-(morpholinomethyl)phenyl)-1H-pyrrolo[2,3-b]pyridin-3-yl)acrylamide] |
| > 10000 | 50 to 100 | COc1ccc([C@@H](C)NC(=O)/C=C/c2c[nH]c3ncc(-c4ccc(CN(C)C)cc4)cc23)cc1OC [Example 184] |
| 1000 to 10000 | 1000 to 10000 | COc1ccc([C@@H](C)NC(=O)/C(C#N)=C/c2c[nH]c3ncc(-c4cccc(OCCCN(C)C)c4)cc23)cc1OC [Example 133] |
